Activity calls are given as the source filed them. No cut-off for these calls is given here.
The compounds below were run against T1, Sodium channel protein type 5 subunit alpha (Homo sapiens, UniProt Q14524) (assay: Inhibition of human sodium Nav1.5 channel expressed in HEK293 cells assessed as inhibition of veratridine-induced late sodium current elicited at -30 mV from holding potential of -110 mV at 10 uM by patch clamp technique). Conditions: HEK293, human.
Assay type: cell-based

T1 sequence (Q14524 whole entry): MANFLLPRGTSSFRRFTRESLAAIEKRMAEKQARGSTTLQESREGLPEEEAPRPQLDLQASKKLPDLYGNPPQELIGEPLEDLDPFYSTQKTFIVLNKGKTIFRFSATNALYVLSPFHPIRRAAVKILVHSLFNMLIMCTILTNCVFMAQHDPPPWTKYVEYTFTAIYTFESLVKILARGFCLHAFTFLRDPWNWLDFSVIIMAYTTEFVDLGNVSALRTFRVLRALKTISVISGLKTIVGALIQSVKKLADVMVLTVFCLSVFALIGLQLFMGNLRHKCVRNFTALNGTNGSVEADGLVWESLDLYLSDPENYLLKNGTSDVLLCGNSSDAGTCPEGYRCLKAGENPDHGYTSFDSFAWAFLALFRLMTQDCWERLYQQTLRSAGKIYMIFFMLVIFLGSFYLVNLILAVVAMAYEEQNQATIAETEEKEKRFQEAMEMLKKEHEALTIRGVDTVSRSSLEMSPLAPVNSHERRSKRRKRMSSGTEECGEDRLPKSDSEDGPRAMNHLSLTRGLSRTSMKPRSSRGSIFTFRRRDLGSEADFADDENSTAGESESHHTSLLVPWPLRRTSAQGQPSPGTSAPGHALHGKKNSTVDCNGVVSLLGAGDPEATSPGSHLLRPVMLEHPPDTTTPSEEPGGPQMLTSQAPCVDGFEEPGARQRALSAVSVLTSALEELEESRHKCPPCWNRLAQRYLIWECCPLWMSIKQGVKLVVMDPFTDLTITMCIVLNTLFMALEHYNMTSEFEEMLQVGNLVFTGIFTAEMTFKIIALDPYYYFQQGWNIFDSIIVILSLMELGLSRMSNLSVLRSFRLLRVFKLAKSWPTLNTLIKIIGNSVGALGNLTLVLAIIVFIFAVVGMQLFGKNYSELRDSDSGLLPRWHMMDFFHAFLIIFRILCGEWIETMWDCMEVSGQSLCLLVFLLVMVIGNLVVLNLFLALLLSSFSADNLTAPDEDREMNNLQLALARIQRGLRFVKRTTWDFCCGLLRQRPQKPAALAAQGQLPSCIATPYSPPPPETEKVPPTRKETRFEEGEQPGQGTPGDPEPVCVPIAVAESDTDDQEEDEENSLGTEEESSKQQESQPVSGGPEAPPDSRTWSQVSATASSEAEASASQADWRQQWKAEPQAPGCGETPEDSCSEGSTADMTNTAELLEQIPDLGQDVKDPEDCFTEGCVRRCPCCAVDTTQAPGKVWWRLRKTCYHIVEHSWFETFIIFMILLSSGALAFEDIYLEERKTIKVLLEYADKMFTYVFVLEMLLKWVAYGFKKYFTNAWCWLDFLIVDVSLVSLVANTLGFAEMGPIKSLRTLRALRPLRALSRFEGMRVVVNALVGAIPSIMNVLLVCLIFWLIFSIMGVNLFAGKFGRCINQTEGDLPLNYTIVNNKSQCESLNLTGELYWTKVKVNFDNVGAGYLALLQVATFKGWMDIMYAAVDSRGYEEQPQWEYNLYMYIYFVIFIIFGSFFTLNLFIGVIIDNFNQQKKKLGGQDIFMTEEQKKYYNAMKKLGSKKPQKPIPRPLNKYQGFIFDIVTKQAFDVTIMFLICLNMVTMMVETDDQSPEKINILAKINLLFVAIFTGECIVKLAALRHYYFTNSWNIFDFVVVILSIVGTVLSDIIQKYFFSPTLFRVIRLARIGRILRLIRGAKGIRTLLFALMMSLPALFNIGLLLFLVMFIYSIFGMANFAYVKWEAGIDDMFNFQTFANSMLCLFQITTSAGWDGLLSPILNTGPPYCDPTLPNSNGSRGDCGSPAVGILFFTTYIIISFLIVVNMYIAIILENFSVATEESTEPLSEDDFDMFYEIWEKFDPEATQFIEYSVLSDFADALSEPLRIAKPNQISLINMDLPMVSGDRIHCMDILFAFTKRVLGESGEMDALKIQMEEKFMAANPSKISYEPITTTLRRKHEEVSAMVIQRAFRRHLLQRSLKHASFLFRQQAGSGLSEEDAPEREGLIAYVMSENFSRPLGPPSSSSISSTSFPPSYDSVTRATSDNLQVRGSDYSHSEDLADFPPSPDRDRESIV

SMILES | inhibition at 10 µM [%]
CCO[C@@H](CN[C@@H]1COc2ccccc2SC1)CSc1ccccc1OC | 22
COc1ccccc1SCC(O)CN[C@@H]1COc2ccccc2SC1 (mixture of isomers) | 37
COc1ccccc1SC[C@H](CN[C@@H]1COc2ccccc2SC1)OC | 12
COc1ccccc1SC[C@@H](F)CN[C@@H]1COc2ccccc2SC1 | 11
COc1ccccc1SC[C@H](O)CN[C@@H]1COc2ccccc2SC1 | 26
CC[C@@H](CN[C@@H]1COc2ccccc2SC1)CSc1ccccc1OC | 46
COc1ccc(CCN(C)CCCOc2nsc(-c3ccccc3)n2)cc1OC | 60
C=C(CN[C@@H]1COc2ccccc2SC1)CSc1ccccc1OC | 36
COc1ccccc1SC[C@H](CN[C@@H]1COc2ccccc2SC1)C(C)C | 31
COc1ccccc1OCC(O)CN1CCN(CC(=O)Nc2c(C)cccc2C)CC1 (configuration not stated) [RANOLAZINE] | 11
CCCO[C@@H](CN[C@@H]1COc2ccccc2SC1)CSc1ccccc1OC | 27
COc1ccccc1SC[C@@H](O)CN[C@@H]1COc2ccccc2SC1 | 69
COc1ccccc1SC[C@@H](C)CN[C@H]1COc2ccccc2SC1 | 31
COc1ccccc1SC[C@H](C)CN[C@H]1COc2ccccc2SC1 | 30
CCC[C@@H](CN[C@@H]1COc2ccccc2SC1)CSc1ccccc1OC | 17
COc1ccccc1SC[C@@H](C)CN[C@@H]1COc2ccccc2SC1 | 53
COc1ccccc1SCC(O)CN[C@H]1COc2ccccc2SC1 (mixture of isomers) | 16
COc1ccccc1SC[C@H](C)CN[C@@H]1COc2ccccc2SC1 | 22
COc1ccccc1SCC(CN[C@@H]1COc2ccccc2SC1)=C(C)C | 31

Same assay, conditions: human, hek293, 10 µM

SMILES | inhibition (INH) [%]
NC1=N[C@H](O)[C@H]2[C@H]3O[C@]4(O)O[C@@H]([C@@H](O)[C@@]2(N1)[C@@H]4O)[C@]3(O)CO [TETRODOTOXIN] | 79

Each compound was assayed against T1, Sodium channel protein type 5 subunit alpha (assay: Inhibition of human sodium Nav1.5 channel expressed in HEK293 cells assessed as inhibition of veratridine-induced late sodium current elicited at -30 mV from holding potential of -90 mV at 10 uM by patch clamp technique). Conditions: HEK293, human.
Assay type: cell-based

SMILES | inhibition at 10 µM [%]
CCO[C@@H](CN[C@@H]1COc2ccccc2SC1)CSc1ccccc1OC | 34
COc1ccccc1SCC(O)CN[C@@H]1COc2ccccc2SC1 (mixture of isomers) | 42
COc1ccccc1SC[C@H](CN[C@@H]1COc2ccccc2SC1)OC | 27
COc1ccccc1SC[C@@H](F)CN[C@@H]1COc2ccccc2SC1 | 19
COc1ccccc1SC[C@H](O)CN[C@@H]1COc2ccccc2SC1 | 30
CC[C@@H](CN[C@@H]1COc2ccccc2SC1)CSc1ccccc1OC | 54
COc1ccc(CCN(C)CCCOc2nsc(-c3ccccc3)n2)cc1OC | 60
C=C(CN[C@@H]1COc2ccccc2SC1)CSc1ccccc1OC | 37
COc1ccccc1SC[C@H](CN[C@@H]1COc2ccccc2SC1)C(C)C | 34
COc1ccccc1OCC(O)CN1CCN(CC(=O)Nc2c(C)cccc2C)CC1 (configuration not stated) [RANOLAZINE] | 19
CCCO[C@@H](CN[C@@H]1COc2ccccc2SC1)CSc1ccccc1OC | 27
COc1ccccc1SC[C@@H](O)CN[C@@H]1COc2ccccc2SC1 | 75
COc1ccccc1SC[C@@H](C)CN[C@H]1COc2ccccc2SC1 | 41
COc1ccccc1SC[C@H](C)CN[C@H]1COc2ccccc2SC1 | 44
CCC[C@@H](CN[C@@H]1COc2ccccc2SC1)CSc1ccccc1OC | 23
COc1ccccc1SC[C@@H](C)CN[C@@H]1COc2ccccc2SC1 | 70
COc1ccccc1SCC(O)CN[C@H]1COc2ccccc2SC1 (mixture of isomers) | 21
COc1ccccc1SC[C@H](C)CN[C@@H]1COc2ccccc2SC1 | 34
COc1ccccc1SCC(CN[C@@H]1COc2ccccc2SC1)=C(C)C | 37

Same assay, conditions: human, hek293, 10 µM

SMILES | inhibition (INH) [%]
NC1=N[C@H](O)[C@H]2[C@H]3O[C@]4(O)O[C@@H]([C@@H](O)[C@@]2(N1)[C@@H]4O)[C@]3(O)CO [TETRODOTOXIN] | 87

What follows are compounds tested on Heart (assay: Inhibition of global ischemia-induced diastolic contracture in isolated Langendorff perfused guinea pig model heart at 1 uM after 15 mins). Conditions: not given.
Assay type: functional, Cavia porcellus

SMILES | inhibition (INH) [%]
CCO[C@@H](CN[C@@H]1COc2ccccc2SC1)CSc1ccccc1OC | 33
COc1ccccc1SC[C@H](CN[C@@H]1COc2ccccc2SC1)OC | 64
CC[C@@H](CN[C@@H]1COc2ccccc2SC1)CSc1ccccc1OC | 68
COc1ccc(CCN(C)CCCOc2nsc(-c3ccccc3)n2)cc1OC | 39
COc1ccccc1SC[C@H](CN[C@@H]1COc2ccccc2SC1)C(C)C | 31
COc1ccccc1SC[C@@H](O)CN[C@@H]1COc2ccccc2SC1 | 14
COc1ccccc1SC[C@@H](C)CN[C@@H]1COc2ccccc2SC1 | 65
COc1ccccc1SCC(CN[C@@H]1COc2ccccc2SC1)=C(C)C | 16

What follows are compounds tested against T1, Sodium channel protein type 5 subunit alpha (assay: Inhibition of sodium Nav1.5 channel assessed as inhibition of late sodium current elicited at -30 mV from holding potential of -110 mV). Conditions: not given.

SMILES | IC50 [µM]
COc1ccccc1SC[C@@H](C)CN[C@@H]1COc2ccccc2SC1 | 2.56

Each compound was assayed against T1, Sodium channel protein type 5 subunit alpha (assay: Inhibition of sodium Nav1.5 channel assessed as inhibition of late sodium current elicited at -30 mV from holding potential of -90 mV). Conditions: not given.

SMILES | IC50 [µM]
COc1ccccc1SC[C@@H](C)CN[C@@H]1COc2ccccc2SC1 | 5.77

These compounds were tested on Oryctolagus cuniculus (assay: Reversal of ischemia-induced ST segment elevation in iv dosed anesthetized New Zealand white rabbit). Conditions: not given.
Assay type: functional

SMILES | ED50 [mg/kg]
COc1cc2c(cc1OC)CC(=O)N(CCCN(C)C[C@H]1Cc3cc(OC)c(OC)cc31)CC2 [IVABRADINE] | 0.59
COc1ccccc1OCC(O)CN1CCN(CC(=O)Nc2c(C)cccc2C)CC1 (configuration not stated) [RANOLAZINE] | > 2.5
COc1ccccc1SC[C@@H](C)CN[C@@H]1COc2ccccc2SC1 | 0.05

What follows are compounds tested on Oryctolagus cuniculus (assay: Reversal of ischemia-induced ST segment elevation in po dosed anesthetized New Zealand white rabbit). Conditions: not given.
Assay type: functional

SMILES | ED50 [mg/kg]
COc1ccccc1SC[C@@H](C)CN[C@@H]1COc2ccccc2SC1 | 0.13

The compounds below were run on Oryctolagus cuniculus (assay: Ratio of ED50 for reversal of ischemia-induced ST segment elevation in po dosed New Zealand white rabbit to ED50 for reversal of ischemia-induced ST segment elevation iv dosed New Zealand white rabbit). Conditions: not given.
Assay type: functional

SMILES | Ratio ED50
COc1ccccc1SC[C@@H](C)CN[C@@H]1COc2ccccc2SC1 | 2.6

The compounds below were run on Oryctolagus cuniculus (assay: Effect on heart rate in anesthetized New Zealand white rabbit myocardial ischemia model assessed as beats per minute at 0.04 mg/kg). Conditions: not given.
Assay type: functional

SMILES | Activity [bpm]
COc1cc2c(cc1OC)CC(=O)N(CCCN(C)C[C@H]1Cc3cc(OC)c(OC)cc31)CC2 [IVABRADINE] | -3.4
COc1ccccc1SC[C@@H](C)CN[C@@H]1COc2ccccc2SC1 | 0.3

Each compound was assayed on Oryctolagus cuniculus (assay: Effect on heart rate in anesthetized New Zealand white rabbit myocardial ischemia model assessed as beats per minute at 0.16 mg/kg). Conditions: not given.
Assay type: functional

SMILES | Activity [bpm]
COc1cc2c(cc1OC)CC(=O)N(CCCN(C)C[C@H]1Cc3cc(OC)c(OC)cc31)CC2 [IVABRADINE] | -20.7
COc1ccccc1SC[C@@H](C)CN[C@@H]1COc2ccccc2SC1 | -6.4

The compounds below were run on Oryctolagus cuniculus (assay: Effect on heart rate in anesthetized New Zealand white rabbit myocardial ischemia model assessed as beats per minute at 0.63 mg/kg). Conditions: not given.
Assay type: functional

SMILES | Activity [bpm]
COc1cc2c(cc1OC)CC(=O)N(CCCN(C)C[C@H]1Cc3cc(OC)c(OC)cc31)CC2 [IVABRADINE] | -69.4
COc1ccccc1SC[C@@H](C)CN[C@@H]1COc2ccccc2SC1 | -3.2

These compounds were tested on Oryctolagus cuniculus (assay: Effect on heart rate in anesthetized New Zealand white rabbit myocardial ischemia model assessed as beats per minute at 2.5 mg/kg). Conditions: not given.
Assay type: functional

SMILES | Activity [bpm]
COc1cc2c(cc1OC)CC(=O)N(CCCN(C)C[C@H]1Cc3cc(OC)c(OC)cc31)CC2 [IVABRADINE] | -112.6
COc1ccccc1SC[C@@H](C)CN[C@@H]1COc2ccccc2SC1 | -8.6

The compounds below were run on Oryctolagus cuniculus (assay: Reversal of ischemia-induced ST segment elevation in anesthetized New Zealand white rabbit at 2.5 mg/kg, iv). Conditions: not given.
Assay type: functional, organism-based
Set-up: dose 2.5 mg/kg

SMILES | Activity
COc1cc2c(cc1OC)CC(=O)N(CCCN(C)C[C@H]1Cc3cc(OC)c(OC)cc31)CC2 [IVABRADINE] | Active

Each compound was assayed on Oryctolagus cuniculus (assay: Effect on heart rate in anesthetized New Zealand white rabbit myocardial ischemia model assessed as beats per minute at 0.01 mg/kg). Conditions: not given.
Assay type: functional

SMILES | Activity [bpm]
COc1ccccc1SC[C@@H](C)CN[C@@H]1COc2ccccc2SC1 | -3.2

Each compound was assayed on Cardiac atrium (assay: not given). Conditions: Rattus norvegicus, Wistar, 1 uM.

SMILES | inhibition [%]
NC1=N[C@H](O)[C@H]2[C@H]3O[C@]4(O)O[C@@H]([C@@H](O)[C@@]2(N1)[C@@H]4O)[C@]3(O)CO [TETRODOTOXIN] | 64

What follows are compounds tested on Cardiac atrium (assay: tissue or blood). Conditions: Rattus norvegicus, Wistar, 0.25 h, read-out: INH.
Description: Inhibition of veratridine-induced diastolic contracture in Wistar rat atrium assessed as inhibition of systolic isometric tension of at 1 uM 15 mins

SMILES | inhibition at 1 µM [%]
CCO[C@@H](CN[C@@H]1COc2ccccc2SC1)CSc1ccccc1OC | 46
COc1ccccc1SCC(O)CN[C@@H]1COc2ccccc2SC1 (mixture of isomers) | 50
COc1ccccc1SC[C@H](CN[C@@H]1COc2ccccc2SC1)OC | 45
COc1ccccc1SC[C@@H](F)CN[C@@H]1COc2ccccc2SC1 | 32
COc1ccccc1SC[C@H](O)CN[C@@H]1COc2ccccc2SC1 | 7
CC[C@@H](CN[C@@H]1COc2ccccc2SC1)CSc1ccccc1OC | 86
COc1ccc(CCN(C)CCCOc2nsc(-c3ccccc3)n2)cc1OC | 45
C=C(CN[C@@H]1COc2ccccc2SC1)CSc1ccccc1OC | 26
COc1ccccc1SC[C@H](CN[C@@H]1COc2ccccc2SC1)C(C)C | 90
COc1ccccc1SC[C@H](CN[C@@H]1COc2ccccc2SC1)OC(C)=O | 9
COc1ccccc1SCCCN[C@@H]1COc2ccccc2SC1 | 3
CCCO[C@@H](CN[C@@H]1COc2ccccc2SC1)CSc1ccccc1OC | 30
COc1ccccc1SC[C@@H](O)CN[C@@H]1COc2ccccc2SC1 | 54
COc1ccccc1SC[C@@H](C)CN[C@H]1COc2ccccc2SC1 | 25
COc1ccccc1SC[C@H](C)CN[C@H]1COc2ccccc2SC1 | 26
COc1ccccc1SC[C@H](CN[C@@H]1COc2ccccc2SC1)OC(=O)c1ccccc1 | 3
CCC[C@@H](CN[C@@H]1COc2ccccc2SC1)CSc1ccccc1OC | 23
COc1ccccc1SC[C@@H](C)CN[C@@H]1COc2ccccc2SC1 | 74
COc1ccccc1SCC(O)CN[C@H]1COc2ccccc2SC1 (mixture of isomers) | 26
COc1ccccc1SC[C@H](C)CN[C@@H]1COc2ccccc2SC1 | 38
COc1ccccc1SCC(CN[C@@H]1COc2ccccc2SC1)=C(C)C | 42
